Test results taken from patent US6537948B1, “Uracil compounds and use thereof” (Sumitomo Chemical Company, Limited, priority 2000, dated 2003).

Columns and labels:
Format in all cases: in vivo
[1] = system: ivyleaf morningglory (Ipomoea hederacea); assay: Test Example 2: soil surface treatment of field; conditions: soil surface spray, dosage 500 g/ha, 19 days after application
Excerpt: (§1) A cylindrical plastic pot having a diameter of 10 cm and a depth of 10 cm was filled with soil and then seeded with ivyleaf morningglory (Ipomoea hederacea) and velvetleaf (Abutilon theophrasti). Then, each of the compounds 1-2, 1-42, 1-48, 2-2, 2-7, 2-42, 2-45, 3-2, 3-12, 4-7, 4-85, 5-12-R, 5-12-S, 5-17, 6-2, 7-2, 7-6, 7-8, 7-12, 7-48, 7-50, 7-84, 7-118, 7-119, 7-125, 9-7, 9-27 and 9-45 was formulated into an emulsifiable concentrate according to Formulation Example 2 and then diluted to the prescribed amount with water, and the dilution was uniformly sprayed over the surface of the soil with a sprayer at a rate of 1000 liters per hectare. After the application, the test plants were grown in the greenhouse for 19 days, and the herbicidal activity was examined.

[2] = system: velvetleaf (Abutilon theophrasti); assay: Test Example 2: soil surface treatment of field; conditions: soil surface spray, dosage 500 g/ha, 19 days after application
Excerpt: as §1

[3] = system: ivyleaf morningglory (Ipomoea hederacea); assay: Test Example 1: foliar treatment of field; conditions: foliar spray, dosage 125 g/ha, 16 days after application
Description: (§2) A cylindrical plastic pot having a diameter of 10 cm and a depth of 10 cm was filled with soil and then seeded with ivyleaf morningglory (Ipomoea hederacea) and velvetleaf (Abutilon theophrasti). These test plants were grown in a greenhouse for 10 days. Then, each of compounds 1-2, 1-42, 1-45, 1-48, 2-2, 2-7, 2-42, 2-45, 3-2, 3-12, 4-7, 4-85, 5-12-R, 5-12-S, 5-17, 6-2, 7-2, 7-6, 7-8, 7-12, 7-48, 7-50, 7-84, 7-118, 7-119, 7-125, 9-7, 9-27 and 9-45 was formulated into an emulsifiable concentrate according to Formulation Example 2 and then diluted to the prescribed amount with water containing a spreading agent and the dilution was uniformly sprayed over the foliage of the test plants with a sprayer at a rate of 1000 liters per hectare. After the application, the test plants were grown in the greenhouse for 16 days, and the herbicidal activity was determined.

[4] = system: velvetleaf (Abutilon theophrasti); assay: Test Example 1: foliar treatment of field; conditions: foliar spray, dosage 125 g/ha, 16 days after application
Description: as §2

COC(=O)C(C)Oc1ccnc(Oc2cc(-n3c(=O)cc(C(F)(F)F)n(C)c3=O)c(F)cc2Cl)n1 (stereo not drawn) [Compound 1-2, methyl 2-([2-{2-chloro-4-fluoro-5-[3-methyl-2,6-dioxo-4-(trifluoromethyl)-1,2,3,6-tetrahydropyrimidin-1-yl]phenoxy}pyrimidin-4-yl]oxy)propionate]
completely controlled: growth of ivyleaf morningglory (herbicidal activity) [1] | growth of velvetleaf (herbicidal activity) [2] | growth of ivyleaf morningglory (herbicidal activity) [3] | growth of velvetleaf (herbicidal activity) [4]

COC(=O)C(C)Oc1cccnc1Oc1cc(-n2c(=O)cc(C(F)(F)F)n(C)c2=O)c(F)cc1Cl (stereo not drawn) [Compound 2-2, 2-{2-chloro-4-fluoro-5-[3-methyl-2,6-dioxo-4-(trifluoromethyl)-1,2,3,6-tetrahydropyrimidin-1-yl]phenoxy}-3-{1-(methoxycarbonyl)ethoxy}pyridine]
completely controlled: growth of ivyleaf morningglory (herbicidal activity) [1] | growth of velvetleaf (herbicidal activity) [2] | growth of ivyleaf morningglory (herbicidal activity) [3] | growth of velvetleaf (herbicidal activity) [4]

COC(=O)COc1cccnc1Oc1cc(-n2c(=O)cc(C(F)(F)F)n(C)c2=O)c(F)cc1Cl [Compound 2-7, 2-{2-chloro-4-fluoro-5-[3-methyl-2,6-dioxo-4-(trifluoromethyl)-1,2,3,6-tetrahydropyrimidin-1-yl]phenoxy}-3-(methoxycarbonyl)methoxypyridine]
completely controlled: growth of ivyleaf morningglory (herbicidal activity) [1] | growth of velvetleaf (herbicidal activity) [2] | growth of ivyleaf morningglory (herbicidal activity) [3] | growth of velvetleaf (herbicidal activity) [4]

COC(=O)C(C)Oc1cccc(Oc2cc(-n3c(=O)cc(C(F)(F)F)n(C)c3=O)c(F)cc2Cl)n1 (stereo not drawn) [Compound 2-42, 2-{2-chloro-4-fluoro-5-[3-methyl-2,6-dioxo-4-(trifluoromethyl)-1,2,3,6-tetrahydropyrimidin-1-yl]phenoxy}-6-{1-(methoxycarbonyl)ethoxy}pyridine]
completely controlled: growth of ivyleaf morningglory (herbicidal activity) [1] | growth of velvetleaf (herbicidal activity) [2] | growth of ivyleaf morningglory (herbicidal activity) [3] | growth of velvetleaf (herbicidal activity) [4]

COC(=O)COc1cccc(Oc2cc(-n3c(=O)cc(C(F)(F)F)n(C)c3=O)c(F)cc2Cl)n1 [Compound 2-45, 2-{2-chloro-4-fluoro-5-[3-methyl-2,6-dioxo-4-(trifluoromethyl)-1,2,3,6-tetrahydropyrimidin-1-yl]phenoxy}-6-(methoxycarbonyl)methoxypyridine]
completely controlled: growth of ivyleaf morningglory (herbicidal activity) [1] | growth of velvetleaf (herbicidal activity) [2] | growth of ivyleaf morningglory (herbicidal activity) [3] | growth of velvetleaf (herbicidal activity) [4]

COC(=O)C(C)Oc1nccc(Oc2cc(-n3c(=O)cc(C(F)(F)F)n(C)c3=O)c(F)cc2Cl)n1 (stereo not drawn) [Compound 3-2, methyl 2-([4-{2-chloro-4-fluoro-5-[3-methyl-2,6-dioxo-4-(trifluoromethyl)-1,2,3,6-tetrahydropyrimidin-1-yl]phenoxy}pyrimidin-2-yl]oxy)propionate]
completely controlled: growth of ivyleaf morningglory (herbicidal activity) [1] | growth of velvetleaf (herbicidal activity) [2] | growth of ivyleaf morningglory (herbicidal activity) [3] | growth of velvetleaf (herbicidal activity) [4]

COC(=O)C(C)Oc1cc(Oc2cc(-n3c(=O)cc(C(F)(F)F)n(C)c3=O)c(F)cc2Cl)ncn1 (stereo not drawn) [Compound 3-12, methyl 2-([4-{2-chloro-4-fluoro-5-[3-methyl-2,6-dioxo-4-(trifluoromethyl)-1,2,3,6-tetrahydropyrimidin-1-yl]phenoxy}pyrimidin-6-yl]oxy)propionate]
completely controlled: growth of ivyleaf morningglory (herbicidal activity) [1] | growth of velvetleaf (herbicidal activity) [2] | growth of ivyleaf morningglory (herbicidal activity) [3] | growth of velvetleaf (herbicidal activity) [4]

COC(=O)COc1nc(C)ncc1Oc1cc(-n2c(=O)cc(C(F)(F)F)n(C)c2=O)c(F)cc1Cl [Compound 4-85, 5-{2-chloro-4-fluoro-5-[3-methyl-2,6-dioxo-4-(trifluoromethyl)-1,2,3,6-tetrahydropyrimidin-1-yl]phenoxy}-4-(methoxycarbonyl)methoxy-2-methylpyrimidine]
completely controlled: growth of ivyleaf morningglory (herbicidal activity) [1] | growth of velvetleaf (herbicidal activity) [2] | growth of ivyleaf morningglory (herbicidal activity) [3] | growth of velvetleaf (herbicidal activity) [4]

COC(=O)[C@@H](C)Oc1n[nH]c(C)c1Oc1cc(-n2c(=O)cc(C(F)(F)F)n(C)c2=O)c(F)cc1Cl [Compound 5-12-R, (R)-3-{1-(methoxycarbonyl)ethoxy}-4-{2-chloro-4-fluoro-5-[3-methyl-2,6-dioxo-4-(trifluoromethyl)-1,2,3,6-tetrahydropyrimidin-1-yl]phenoxy}-5-methylpyrazole]
completely controlled: growth of ivyleaf morningglory (herbicidal activity) [1] | growth of velvetleaf (herbicidal activity) [2] | growth of ivyleaf morningglory (herbicidal activity) [3] | growth of velvetleaf (herbicidal activity) [4]

COC(=O)[C@H](C)Oc1n[nH]c(C)c1Oc1cc(-n2c(=O)cc(C(F)(F)F)n(C)c2=O)c(F)cc1Cl [Compound 5-12-S, (S)-3-{1-(methoxycarbonyl)ethoxy}-4-{2-chloro-4-fluoro-5-[3-methyl-2,6-dioxo-4-(trifluoromethyl)-1,2,3,6-tetrahydropyrimidin-1-yl]phenoxy}-5-methylpyrazole]
completely controlled: growth of ivyleaf morningglory (herbicidal activity) [1] | growth of velvetleaf (herbicidal activity) [2] | growth of ivyleaf morningglory (herbicidal activity) [3] | growth of velvetleaf (herbicidal activity) [4]

COC(=O)COc1n[nH]c(C)c1Oc1cc(-n2c(=O)cc(C(F)(F)F)n(C)c2=O)c(F)cc1Cl [Compound 5-17, 3-(methoxycarbonyl)methoxy-4-{2-chloro-4-fluoro-5-[3-methyl-2,6-dioxo-4-(trifluoromethyl)-1,2,3,6-tetrahydropyrimidin-1-yl]phenoxy}-5-methylpyrazole]
completely controlled: growth of ivyleaf morningglory (herbicidal activity) [1] | growth of velvetleaf (herbicidal activity) [2] | growth of ivyleaf morningglory (herbicidal activity) [3] | growth of velvetleaf (herbicidal activity) [4]

COC(=O)C(C)Oc1ncccc1Oc1cc(-n2c(=O)cc(C(F)(F)F)n(C)c2=O)c(F)cc1Cl (stereo not drawn) [Compound 7-2, 3-{2-chloro-4-fluoro-5-[3-methyl-2,6-dioxo-4-(trifluoromethyl)-1,2,3,6-tetrahydropyrimidin-1-yl]phenoxy}-2-{1-(methoxycarbonyl)ethoxy} pyridine]
completely controlled: growth of ivyleaf morningglory (herbicidal activity) [1] | growth of velvetleaf (herbicidal activity) [2] | growth of ivyleaf morningglory (herbicidal activity) [3] | growth of velvetleaf (herbicidal activity) [4]
